Data on ten substances can be found in the OligoGym collection.

HELM strings list units from the 5' end as sugar, base in round brackets, then linkage (d deoxyribose, r ribose, m 2'-O-methyl, p phosphodiester). Strings are as the collection lists them; they lack the last nucleoside at the 3' end of the tested compound. [moe] = 2'-O-(2-methoxyethyl) (MOE); [sp] = phosphorothioate linkage; [m5C] = 5-methylcytosine

The target in the data set is PRNP. Nature of the data set: mouse, dose not given. The conditions noted are these: ASO.

Consider “RNA1{[moe](A)[sp].[moe](T)p.[moe]([m5C])p.[moe](A)p.[moe](T)[sp].d(T)[sp].d(T)[sp].d(T)[sp].d(G)[sp].d([m5C])[sp].d([m5C])[sp].d(A)[sp].d(T)[sp].d(T)[sp].d(T)[sp].[moe](A)p.[moe](T)p.[moe]([m5C])[sp].[moe](T)}$$$$ (last 3' nucleoside missing)”, for which the 3 h FOB score is 3.25 score 0-7.
To “RNA1{[moe](A)[sp].[moe]([m5C])[sp].[moe](T)p.[moe]([m5C])p.[moe](T)p.[moe](A)p.[moe](T)p.d(G)[sp].d(T)[sp].d(T)[sp].d(T)[sp].d(T)[sp].d([m5C])[sp].d([m5C])[sp].d(A)[sp].d(G)[sp].d(T)[sp].[moe](G)p.[moe]([m5C])}$$$$ (last 3' nucleoside missing)” belongs 4.25 score 0-7; to “RNA1{[moe](A)[sp].[moe]([m5C])p.[moe](A)p.[moe](A)p.[moe](T)[sp].d([m5C])[sp].d(T)[sp].d(G)[sp].d(T)[sp].d(T)[sp].d(G)[sp].d(T)[sp].d(G)[sp].d(G)[sp].d(T)[sp].[moe](T)p.[moe]([m5C])p.[moe](A)[sp].[moe](G)}$$$$ (last 3' nucleoside missing)”, 6.5 score 0-7; to “RNA1{[moe](A)[sp].[moe]([m5C])p.[moe](A)p.[moe](T)p.[moe](T)[sp].d(T)[sp].d(A)[sp].d(T)[sp].d(T)[sp].d(T)[sp].d([m5C])[sp].d(A)[sp].d(T)[sp].d(G)[sp].d(T)[sp].[moe](G)p.[moe]([m5C])p.[moe]([m5C])[sp].[moe](A)}$$$$ (last 3' nucleoside missing)”, 3 score 0-7.
For “RNA1{[moe](A)[sp].[moe]([m5C])p.[moe](G)p.[moe](T)p.[moe]([m5C])[sp].d([m5C])[sp].d(A)[sp].d(T)[sp].d(T)[sp].d(T)[sp].d(T)[sp].d([m5C])[sp].d(T)[sp].d(G)[sp].d(T)[sp].[moe](G)p.[moe]([m5C])p.[moe](T)[sp].[moe](T)}$$$$ (last 3' nucleoside missing)”, the 3 h FOB score amounted to 1.75 score 0-7.
The result for “RNA1{[moe](A)[sp].[moe]([m5C])p.[moe](T)p.[moe](G)p.[moe](A)[sp].d(A)[sp].d(T)[sp].d(T)[sp].d(T)[sp].d(T)[sp].d([m5C])[sp].d(T)[sp].d([m5C])[sp].d(T)[sp].d([m5C])[sp].[moe]([m5C])p.[moe]([m5C])p.[moe](A)[sp].[moe](G)}$$$$ (last 3' nucleoside missing)” reads 0 score 0-7.
“RNA1{[moe](A)[sp].[moe]([m5C])p.[moe](T)p.[moe](T)p.[moe](G)[sp].d(T)[sp].d([m5C])[sp].d(A)[sp].d(G)[sp].d(T)[sp].d(T)[sp].d(T)[sp].d(T)[sp].d(T)[sp].d([m5C])[sp].[moe]([m5C])p.[moe]([m5C])p.[moe]([m5C])[sp].[moe](A)}$$$$ (last 3' nucleoside missing)” gave a 3 h FOB score of 1 score 0-7.
The substance “RNA1{[moe](A)[sp].[moe]([m5C])p.[moe](T)p.[moe](T)p.[moe](G)p.[moe](T)p.d([m5C])[sp].d(A)[sp].d(G)[sp].d(T)[sp].d(T)[sp].d(T)[sp].d(T)[sp].d(T)[sp].d([m5C])[sp].d([m5C])[sp].[moe]([m5C])p.[moe]([m5C])[sp].[moe](A)}$$$$ (last 3' nucleoside missing)” came in with a 3 h FOB score of 0.25 score 0-7.
To “RNA1{[moe](A)[sp].[moe]([m5C])p.[moe](T)p.[moe](T)p.d(G)[sp].d(T)[sp].d([m5C])[sp].d(A)[sp].d(G)[sp].d(T)[sp].d(T)[sp].d(T)[sp].d(T)[sp].d(T)[sp].[moe]([m5C])p.[moe]([m5C])p.[moe]([m5C])p.[moe]([m5C])[sp].[moe](A)}$$$$ (last 3' nucleoside missing)” belongs 2.5 score 0-7.
To “RNA1{[moe](A)[sp].[moe]([m5C])p.[moe](T)p.[moe]([m5C])p.[moe](T)[sp].d(A)[sp].d(T)[sp].d(G)[sp].d(T)[sp].d(T)[sp].d(T)[sp].d(T)[sp].d([m5C])[sp].[moe]([m5C])p.[moe](A)p.[moe](G)[sp].[moe](T)}$$$$ (last 3' nucleoside missing)” belongs 4.5 score 0-7.
